Measured values as given in patent US20240400591A1 (Jacobio Pharmaceuticals Co., Ltd., priority 2021, published 2024).
Read-outs that look alike come from different tables or passages of the source.

Tests used:
[1] = biological target: T1, His-p53 Y220C (94-294) protein (Homo sapiens, UniProt P04637, Y220C); experiment: In vitro DNA binding assay (HTRF); assay type: biochemical; details: % activation normalized to 2 μM Ref-1a high control
T1 construct: His-p53 Y220C (94-294) protein

NUGC3 (P53 Y220C) = experiment: Cell viability assay (CellTiter-Glo, 6 days), NUGC3; assay type: cell-based; details: Homo sapiens, NUGC-3, 144 h
Method: (§1) Cells were collected and counted. A desired number of cells was seeded into 96-well microplate and cultured in 37° C. cell incubator overnight. Compounds dissolved in cell culture medium were added into cell plate and cultured for 6 days. After balancing CellTiter-Glo reagent and cells at room temperature for 30 min, equal volume of CellTiter-Glo reagents was added to assay plate and shaken for 2 min for cell lysis. The cells were balanced at room temperature for 10 minutes and Luminescence signal was read using Envision. The percent of cell viability for compounds treated wells were normalized between High control and low control. Wells containing cell culture medium and same percentage DMSO sewved as Low control. Wells containing cells and same percentage DMSO sewved as High control. Cell viability (%)=(Luminescence readoutCompound treated−Luminescence readoutLow control)/(Luminescence readoutHigh control−Luminescence readoutLow control)*100%. Then the data were analyzed either by fitting a 4-parameter logistic model or by Excel to calculate IC50 values. And the IC50 was the concentration at 50% Cell viability on the curve.

NUGC4 (P53 WT) = experiment: Cell viability assay (CellTiter-Glo, 6 days), NUGC4; assay type: cell-based; details: Homo sapiens, NUGC-4, 144 h
Method: as §1

[2] = test system: NUGC-3_P53_Luc single clonal cell line (p53 Y220C); experiment: Reporter gene assay (p53 RE luciferase); assay type: cell-based; details: Homo sapiens
Method: NUGC-3_P53_Luc single clonal cell line was established using pGL4.38[luc2P/p53 RE/Hygro] Vector (E365A, promega). NUGC-3_P53-Luc single clonal cells were cultured in 37° C. cell incubator before use. NUGC-3-P53-Luc cells were collected and washed twice with PBS to remove phenol red and then resuspended in medium to a proper concentration. Tested compound dilutions were transferred into 384 well assay plates (PerkinElmer). A desired number of cells was seeded into the assay plate and cultured for 6 hours at 37° C. cell incubator. Britelite plus Luciferase Assay Reagent were added into each well and the luminescence value was recorded on Envision. The percent of activity value of compounds treated wells was normalized between high control and low control. Wells containing cells and Ref-1a (10 μM) sewved as high control, and wells containing cells and same percentage of DMSO sewved as low control. Activity value (%)=(Luminescence readoutCompound treated−Luminescence readoutLow control)/(Luminescence readoutHigh control−Luminescence readoutLow control)*100%. Then the data were analyzed either by fitting a 4-parameter logistic model or by Excel to calculate EC50 values and the EC50 was the concentration at 50% Activity on the curve.

[3] = cell viability, 6 days, CellTiter-Glo, read-out: NUGC3 (P53 Y220C) IC50
[4] = cell viability, 6 days, CellTiter-Glo, read-out: NUGC4 (P53 WT) IC50
[5] = NUGC-3, luciferase reporter, 6 hours, normalized to Ref-1a (10 μM) high control, read-out: p53(Y220C)_NUGC-3 EC50
[6] = NUGC-3, 6 h, luciferase reporter, 6 hours, normalized to Ref-1a (10 μM) high control, read-out: p53(Y220C)_NUGC-3 EC50

Structure (SMILES) | EC50 [1] [nM] | IC50 (NUGC3 (P53 Y220C); [3]) [µM] | IC50 (NUGC4 (P53 WT); [4]) [µM] | EC50 [2, 5] [µM] | EC50 [2, 6] [µM] | IC50 (NUGC3 (P53 Y220C); read-out: NUGC3 (P53 Y220C) IC50 (μM)) [µM] | IC50 (NUGC4 (P53 WT); read-out: NUGC4 (P53 WT) IC50 (μM)) [µM] | EC50 ([2]; NUGC-3, 6 h, read-out: p53(Y220C)_NUGC-3 EC50 (μM)) [µM]
CNC(=O)c1ccc(NCC#Cc2sc3c(N[C@H]4CCN(C)C[C@H]4F)cccc3c2CC(F)(F)F)c(OC)c1 (racemic) [Example 41, 4-((3-(7-(((3R,4S)-3-fluoro-1-methylpiperidin-4-yl)amino)-3-(2,2,2-trifluoroethyl)benzo[b]thiophen-2-yl)prop-2-yn-1-yl)amino)-3-methoxy-N-methylbenzamide] | 57 | 1.54 | 6.14 | 0.6 | – | – | – | –
COc1cc(P(C)(C)=O)ccc1NCC#Cc1sc2c(N[C@@H]3CCN(C4CCN(C)CC4)C[C@@H]3F)cccc2c1CC(F)(F)F (racemic) [Example 72, (Z)-(4-((3-(7-((3-fluoro-1′-methyl-[1,4′-bipiperidin]-4-yl)amino)-3-(2,2,2-trifluoroethyl)benzo[b]thiophen-2-yl)prop-2-yn-1-yl)amino)-3-methoxyphenyl)dimethylphosphine oxide] | 41 | 0.43 | 4.43 | – | 0.21 | – | – | –
COc1cc(P(C)(C)=O)ccc1NCC#Cc1sc2c(N[C@@H]3CCN(C4CCOCC4)C[C@@H]3F)cccc2c1CC(F)(F)F (racemic) [Example 73, (Z)-(4-((3-(7-((3-fluoro-1-(tetrahydro-2H-pyran-4-yl)piperidin-4-yl)amino)-3-(2,2,2-trifluoroethyl)benzo[b]thiophen-2-yl)prop-2-yn-1-yl)amino)-3-methoxyphenyl)dimethylphosphine oxide] | 70 | 0.77 | 3.42 | 0.13 | – | – | – | –
COc1cc(P(C)(C)=O)ccc1NCC#Cc1sc2c(N[C@@H]3CCN(C4COC4)C[C@@H]3F)cccc2c1CC(F)(F)F (racemic) [Example 75, (4-((3-(7-(((Z)-3-fluoro-1-(oxetan-3-yl)piperidin-4-yl)amino)-3-(2,2,2-trifluoroethyl)benzo[b]thiophen-2-yl)prop-2-yn-1-yl)amino)-3-methoxyphenyl)dimethylphosphine oxide] | 82 | 1.02 | 5.34 | 0.16 | – | – | – | –
CN1CC[C@@H](Nc2cccc3c(CC(F)(F)F)c(C#CCNc4ccc(P(C)(C)=O)cc4Cl)sc23)[C@@H](F)C1 (racemic) [Example 83, (3-chloro-4-((3-(7-(((Z)-3-fluoro-1-methylpiperidin-4-yl)amino)-3-(2,2,2-trifluoroethyl)benzo[b]thiophen-2-yl)prop-2-yn-1-yl)amino)phenyl)dimethylphosphine oxide] | 40 | 1.31 | 7.96 | – | 0.21 | – | – | –
COc1cc(P(C)(C)=O)ccc1NCC#Cc1sc2c(N[C@@H]3CCN(C(C)C)C[C@@H]3F)cccc2c1CC(F)(F)F (racemic) [Example 86, (4-((3-(7-(((Z)-3-fluoro-1-isopropylpiperidin-4-yl)amino)-3-(2,2,2-trifluoroethyl)benzo[b]thiophen-2-yl)prop-2-yn-1-yl)amino)-3-methoxyphenyl)dimethylphosphine oxide] | 37 | 0.79 | 4.56 | – | 0.14 | – | – | –
CN1CC[C@@H](Nc2cccc3c(CC(F)(F)F)c(C#CCNc4cc(F)c(P(C)(C)=O)cc4F)sc23)[C@@H](F)C1 (racemic) [Example 91, (2,5-difluoro-4-((3-(7-(((Z)-3-fluoro-1-methylpiperidin-4-yl)amino)-3-(2,2,2-trifluoroethyl)benzo[b]thiophen-2-yl)prop-2-yn-1-yl)amino)phenyl)dimethylphosphine oxide] | 102 | 1.8 | 9.41 | 0.26 | – | – | – | –
COc1cc(P(=O)(C2CC2)C2CC2)ccc1NCC#Cc1sc2c(N[C@@H]3CCN(C)C[C@@H]3F)cccc2c1CC(F)(F)F (racemic) [Example 99, dicyclopropyl(4-((3-(7-(((Z)-3-fluoro-1-methylpiperidin-4-yl)amino)-3-(2,2,2-trifluoroethyl)benzo[b]thiophen-2-yl)prop-2-yn-1-yl)amino)-3-methoxyphenyl)phosphine oxide] | 87 | – | – | – | – | 1.44 | 6.58 | 0.15
CN1CC[C@@H](Nc2cccc3c(CC(F)(F)F)c(C#CCNc4ccc(P(C)(C)=O)cc4C(=O)NC4COC4)sc23)[C@@H](F)C1 [Example 217, 5-(dimethylphosphoryl)-2-((3-(7-(((3S,4R)-3-fluoro-1-methylpiperidin-4-yl)amino)-3-(2,2,2-trifluoroethyl)benzo[b]thiophen-2-yl)prop-2-yn-1-yl)amino)-N-(oxetan-3-yl)benzamide] | – | 0.32 | 15.4 | 0.15 | – | – | – | –

Now from value to compound, other results behind:

EC50 [1] [nM] | Structure (SMILES) | IC50 (NUGC3 (P53 Y220C); [3]) [µM] | IC50 (NUGC4 (P53 WT); [4]) [µM] | EC50 [2, 5] [µM] | EC50 [2, 6] [µM] | IC50 (NUGC3 (P53 Y220C); read-out: NUGC3 (P53 Y220C) IC50 (μM)) [µM] | IC50 (NUGC4 (P53 WT); read-out: NUGC4 (P53 WT) IC50 (μM)) [µM] | EC50 ([2]; NUGC-3, 6 h, read-out: p53(Y220C)_NUGC-3 EC50 (μM)) [µM]
130 | COCC(O)CN1CC[C@@H](Nc2cccc3c(CC(F)(F)F)c(C#CCNc4ccc(S(C)(=O)=O)cc4OC)sc23)[C@@H](F)C1 (mixture of isomers) [Example 6, 1-((Z)-3-fluoro-4-((2-(3-((2-methoxy-4-(methylsulfonyl)phenyl)amino)prop-1-yn-1-yl)-3-(2,2,2-trifluoroethyl)benzo[b]thiophen-7-yl)amino)piperidin-1-yl)-3-methoxypropan-2-ol] | 1.19 | 6.83 | 0.36 | – | – | – | –
64 | COc1cc(P(C)(C)=O)ccc1NCC#Cc1sc2c(NC3CCN(CC4CC4)C[C@@H]3F)cccc2c1CC(F)(F)F (mixture of isomers) [Example 102, (4-((3-(7-(((Z)-1-(cyclopropylmethyl)-3-fluoropiperidin-4-yl)amino)-3-(2,2,2-trifluoroethyl)benzo[b]thiophen-2-yl)prop-2-yn-1-yl)amino)-3-methoxyphenyl)dimethylphosphine oxide] | 0.81 | 1.92 | 0.11 | – | – | – | –
60 | CCP(=O)(CC)c1ccc(NCC#Cc2sc3c(N[C@@H]4CCN(C)C[C@@H]4F)cccc3c2CC(F)(F)F)c(OCF)c1 (racemic) [Example 66, diethyl(4-((3-(7-(((Z)-3-fluoro-1-methylpiperidin-4-yl)amino)-3-(2,2,2-trifluoroethyl)benzo[b]thiophen-2-yl)prop-2-yn-1-yl)amino)-3-(fluoromethoxy)phenyl)phosphine oxide] | 0.82 | 10.3 | 0.12 | – | – | – | –
127 | COc1cc(P(C)(C)=O)ccc1NCC#Cc1sc2c(N[C@@H]3CCN(C4CC4)C[C@@H]3F)cccc2c1CC(F)(F)F (racemic) [Example 74, (4-((3-(7-(((Z)-1-cyclopropyl-3-fluoropiperidin-4-yl)amino)-3-(2,2,2-trifluoroethyl)benzo[b]thiophen-2-yl)prop-2-yn-1-yl)amino)-3-methoxyphenyl)dimethylphosphine oxide] | 2.05 | 2.73 | 0.25 | – | – | – | –
87 | CNC(=O)c1ccc(NCC#Cc2sc3c(N[C@@H]4CCN(C)C[C@@H]4F)cccc3c2CC(F)(F)F)c(OCCOC)c1 (racemic) [Example 81, 4-((3-(7-(((Z)-3-fluoro-1-methylpiperidin-4-yl)amino)-3-(2,2,2-trifluoroethyl)benzo[b]thiophen-2-yl)prop-2-yn-1-yl)amino)-3-(2-methoxyethoxy)-N-methylbenzamide] | 1.68 | 8.64 | 0.29 | – | – | – | –
103 | COCCOCCNC(=O)c1ccc(NCC#Cc2sc3c(N[C@@H]4CCN(C)C[C@@H]4F)cccc3c2CC(F)(F)F)c(OC)c1 (racemic) [Example 96, 4-((3-(7-(((Z)-3-fluoro-1-methylpiperidin-4-yl)amino)-3-(2,2,2-trifluoroethyl)benzo[b]thiophen-2-yl)prop-2-yn-1-yl)amino)-3-methoxy-N-(2-(2-methoxyethoxy)ethyl)benzamide] | 1.68 | 9.93 | 0.13 | – | – | – | –
